# Data taken from patent publication US8822526B2, “Synergistic pharmaceutical combination for the treatment of cancer” (Piramal Enterprises Limited, priority 2007, dated 2014).
# Where “and” joins values, the source holds several entries; their conditions need not be identical. Equal entries are not always repeated. Where two headings read alike, the source gives them in different places.
# Experiments:
# [1] = test system: human non-small cell lung carcinoma H-460 cells; experiment: In vitro cytotoxicity assay (MTS)
# Description: The cytotoxicity assay used was MTS (3-(4,5-dimethylthiazol-2-yl)-5-(3-carboxymethoxyphenyl)-2-(4-sulfophenyl)-2H-tetrazolium, inner salt) assay. The human non-small cell lung carcinoma H-460 cells were seeded at a density of 1500 cells/well in 180 μL of culture medium in 96-well plate and incubated overnight to allow the cells to adhere. Varying concentrations of the drugs contained in the combination were added to the wells and incubated for an appropriate period of time in humidified 5% CO2 incubator at 37° C. in case of a single drug exposure. […] Control wells were treated with a vehicle. At the end of the incubation period, the medium was removed from the wells and 20 μL of MTS (2 mg/mL in phosphate buffer saline, pH 6-6.5 and filter sterilized) and 1 μL of phenazine methosulfate (PMS, 3 mM in phosphate buffered saline, pH 7.3 and filter sterilized) was added to each well and the total volume was adjusted to 200 μL with complete medium. The plate was incubated for 2-4 hours in humidified 5% CO2 incubator at 37° C.
# (§1) After completion of the drugs treatment i.e. at the end of 96 hours the plates were processed for MTS viability assay and the percent cytotoxicity was calculated as compared to control.
# as §1
# (§2) The human non-small cell lung carcinoma H-460 cells were seeded at a density of 1500 cells/well. […] After completion of the drugs treatment i.e. at the end of 120 hours the plates were processed for MTS viability assay and the percent cytotoxicity was calculated as compared to control.
# as §2
# The human non-small cell lung carcinoma H-460 cells were seeded at a density of 1500 cells/well. […] After completion of the drugs treatment i.e. at the end of 120 hours, the plates were processed for MTS viability assay and the percent cytotoxicity was calculated as compared to control.
# (§3) After completion of the drugs treatment i.e. at the end of 48 hours the plates were processed for MTS viability assay and the percent cytotoxicity was calculated as compared to control.
# The plates were processed for MTS viability assay and the percent cytotoxicity was calculated as compared to control.
# as §3
# The human non-small cell lung carcinoma H-460 cells were seeded at a density of 1500 cells/well. As per Table 16A the cells were first treated with either of the drugs alone i.e. with doxorubicin or flavopiridol alone. Doxorubicin treatment was for the first 24 hours followed by complete medium for 96 hours while in case of flavopiridol, the first 24 hours was in complete medium followed by flavopiridol for the next 96 hours. […] After completion of the drugs treatment i.e. at the end of 120 hours the plates were processed for MTS viability assay and the percent cytotoxicity was calculated as compared to control.
# As per Table 16B the cells were first treated with either of the drugs alone i.e. with doxorubicin or flavopiridol alone. Flavopiridol treatment was for the first 96 hours followed by complete medium for 24 hours while in case of doxorubicin, the first 96 hours was in complete medium followed by doxorubicin for 24 hours. […] After completion of the drugs treatment i.e. at the end of 120 hours, the plates were processed for MTS viability assay and the percent cytotoxicity was calculated as compared to control.
# The human non-small cell lung carcinoma H-460 cells were seeded at a density of 1500 cells/well.
# [2] = test system: human non-small cell lung carcinoma H-460; experiment: Analysis of cell cycle distribution and flow cytometry (sub G1 apoptosis); format: cell-based
# Description: The human non-small cell lung carcinoma H-460 was seeded in 25 mm^3 tissue culture flasks. […] The control cells were left untreated for 96 hours or 120 hours. Both detached and adherent cells were harvested at different time points. The cells were washed twice with approximately 5 mL of PBS with centrifugation at 1000 rpm for 10 minutes. The cells were re-suspended in 500 μL of PBS and fixed in 500 μL ice-cold 70% ethanol. The fixed cells were incubated at room temperature for 30 minutes, spun at 1000 rpm for 10 minutes. To the cell pellet 1 mL of chilled 70% ethanol was added and the cell pellet was then kept in fridge till further analysis. Cells were washed twice with PBS to remove fixative and re-suspended in 250 μL PBS. To this 50 μL of propidium iodide (4 mg/mL in PBS) and 12.5 μL Rnase A (1 mg/mL) was added. After incubation at 37° C. for 30 minutes, cells were analyzed using flow cytometry.
# A Becton Dickinson FACS Calibur flow cytometer was used in accordance with the manufacturer's recommendations. The argon ion laser set at 488 nm was used as an excitation source. Cells with DNA content between 2n and 4n were designated as being in G1, S and G2/M phases of the cell cycle, as defined by the level of red fluorescence. […] The number of cells in each cell cycle compartment was expressed as a percentage of the total number of cells present
# About 1-2×10^6 cells were seeded in a tissue culture flask for the treatment groups. The assay protocol was as mentioned above in “analysis of cell cycle distribution and flow cytometry”. The cell cycle was divided in four parts, which are represented in the FIG. 1 as M1, M2, M3 and M4. M1 corresponds to the G1 phase, M2 to the S phase, M3 to the G2-M phase and M4 to the sub G1 phase, which represents the cells undergoing apoptosis.
# About 1-2×10^6 cells were seeded in a tissue culture flask for the treatment groups. The assay protocol was as mentioned above in “analysis of cell cycle distribution and flow cytometry”. The cell cycle was divided in four parts, which are represented in the figure as M1, M2, M3 and M4. M1 corresponds to the G1 phase, M2 to the S phase, M3 to the G2-M phase and M4 to the sub G1 phase, which represents the cells undergoing apoptosis.
# Cdk1 = experiment: Western blot analysis; format: cell-based, human; details: H-460; doxorubicin 100 nM 24 hours; compound A 1200 nM 96 hours; combination sequential; FIG. 6
# Description: (§4) At the end of the treatment period cells were lysed and protein content of the lysate was estimated using the Bradford reagent. 40 μg of protein was loaded on SDS-PAGE and transferred on PVDF membrane. The membranes were probed with p53, Bax, Bcl-2, cyclin D1, Cdk1 and actin antibodies. The primary antibody were detected with horseradish […] secondary antibody and subjected to west pico chemiluminescence reagents.
# (§5) Equal amount of protein was loaded in the four lanes. The different samples loaded in the wells are described in the figure legend. […] This correlates with the increased apoptosis seen in the combination treatment in FACS analysis. The pro-apoptotic protein Bax is slightly up regulated with respect to control in all treatment samples. […] Cdk1-B1 is an initiator of mitosis. The deregulation of this enzyme leads to tumorigenesis.
# cyclin D1 = experiment: Western blot analysis; format: cell-based, human; details: H-460; doxorubicin 100 nM 24 hours; compound A 1200 nM 96 hours; combination sequential; FIG. 6
# Description: as §4, §5
# [3] = FIG. 1: 200 nM doxorubicin alone (24 hours), 800 nM compound A alone (72 hours), combination 200 nM doxorubicin (24 hours) followed by 800 nM compound A (72 hours)
# [4] = FIG. 2: 100 nM doxorubicin alone (24 hours), 1200 nM compound A alone (96 hours), combination 100 nM doxorubicin (24 hours) followed by 1200 nM compound A (96 hours)
smiles,measurement,setting,value
"CN1CC[C@@H](c2c(O)cc(O)c3c(=O)cc(-c4ccccc4Cl)oc23)[C@@H]1CO.Cl [Compound A, (+)-trans-2-(2-Chloro-phenyl)-5,7-dihydroxy-8-(2-hydroxymethyl-1-methyl-pyrrolidin-3-yl)-chromen-4-one hydrochloride]",IC30 concentration after 48 hours treatment,"[1]; H-460 cells, 48 hours treatment, hydrochloride",800 nM and ~700 nM
same,IC50,"[1]; Homo sapiens, NCI-H460, 48 h, read-out: IC50 concentration after 48 hours treatment, H-460 cells, 48 hours treatment",1200 nM
same,cytotoxicity at 0.8 µM,"[1]; Homo sapiens, NCI-H460, 120 h, compound A 800 nM alone for 120 hours",24%
same,cytotoxicity at 1.2 µM,"[1]; Homo sapiens, NCI-H460, 120 h, compound A 1200 nM alone for 120 hours",44%
same,% Cytotoxicity,"[1]; human, 45 h, 1000 nM",35%
same,% Cytotoxicity,"[1]; human, 72 h, 800 nM",17%
same,% Cytotoxicity,"[1]; human, 72 h, 1200 nM",36%
same,% Cytotoxicity,"[1]; human, 96 h, 800 nM",19%
same,IC50,"[1]; read-out: IC50 concentration after 48 hours treatment, H-460 cells, 48 hours treatment, hydrochloride",~1000 nM
same,apoptosis (sub G1 phase),[2]; [3],10%
same,apoptosis (sub G1 phase),[2]; [4],32%
same,Cdk1 levels (western blot),Cdk1,levels equal to control
same,Cyclin D1 levels (western blot),cyclin D1,slight reduction
COc1cccc2c1C(=O)c1c(O)c3c(c(O)c1C2=O)C[C@@](O)(C(=O)CO)C[C@@H]3O[C@H]1C[C@H](N)[C@H](O)[C@H](C)O1 [Doxorubicin],% Cytotoxicity,[1]; Doxorubicin 30 nM alone for 120 hours,2%
same,% Cytotoxicity,"[1]; Doxorubicin 30 nM first 24 hours, then complete medium 96 hours, MTS at 120 hours",0%
same,% Cytotoxicity,"[1]; Doxorubicin 70 nM first 24 hours, then complete medium 96 hours, MTS at 120 hours",14% and 12%
same,% Cytotoxicity,[1]; Doxorubicin 100 nM alone for 120 hours,24%
same,% Cytotoxicity,"[1]; Doxorubicin 100 nM first 24 hours, then complete medium 72 hours, MTS at 96 hours",16%
same,% Cytotoxicity,"[1]; Doxorubicin 100 nM first 24 hours, then complete medium 96 hours, MTS at 120 hours",8%
same,% Cytotoxicity,"[1]; Doxorubicin 100 nM first 24 hours, then complete medium 96 hours, MTS at 120 hours, listed as Doxo.",16% and 9%
same,% Cytotoxicity,"[1]; Doxorubicin 200 nM first 24 hours, then complete medium 96 hours, MTS at 120 hours",17%
same,cytotoxicity at 0.03 µM,"[1]; Homo sapiens, NCI-H460, 120 h, Doxorubicin 30 nM alone for 120 hours",3%
same,cytotoxicity at 0.07 µM,"[1]; Homo sapiens, NCI-H460, 120 h, Doxorubicin 70 nM alone for 120 hours",28%
same,cytotoxicity at 0.1 µM,"[1]; Homo sapiens, NCI-H460, 120 h, Doxorubicin 100 nM alone for 120 hours",19%
same,cytotoxicity at 0.2 µM,"[1]; Homo sapiens, NCI-H460, 120 h, Doxorubicin 200 nM alone for 120 hours",48%
same,apoptosis (sub G1 phase),[2]; [3],10%
same,apoptosis (sub G1 phase),[2]; [4],3%
same,Cdk1 levels (western blot),Cdk1,significantly induces Cdk1 levels
same,Cyclin D1 levels (western blot),cyclin D1,slight reduction
